Measurements: BindingDB's records for doi:10.1021/jm0613121 (Bar-Ilan University, 2007)

Target: T1, Gag-Pol polyprotein [600-1029,C879S]/[600-1159,C879S] (Human immunodeficiency virus 1, UniProt P03366, C879S)
T1 construct: 600-1029; 600-1159
Assay: HIV-1 RT Assay

SMILES	IC50 (pH 7.5, 37 °C) [µM]	IC50 [µM]
NC(=O)CC(=O)c1cccc(C(=O)c2ccccc2)c1 [3-(3-Benzoylphenyl)-3-oxopropanamide]	> 312	
N#CCC(=O)c1ccc(Cl)c(Br)c1 [3-(3-Bromo-4-chlorophenyl)-3-oxopropanenitrile]	> 312	
NC(=O)CC(=O)c1cccc(Cl)c1 [3-(3-Chlorophenyl)-3-oxopropanamide]	> 312	
N#CCC(=O)c1cccc(I)c1 [3-(3-Iodophenyl)-3-oxopropanenitrile]	> 312	
NC(=O)CC(=O)c1cccc(-c2ccccc2)c1 [3-Oxo-3-(3-phenylphenyl)propanamide]	> 312	
NC(=O)c1[nH]cnc1-c1cccc(C(=O)c2ccccc2)c1 [4-(3-Benzoylphenyl)-1H-imidazole-5-carboxamide]	> 312	
NC(=O)c1scnc1-c1cccc(I)c1 [4-(3-Iodophenyl)thiazole-5-carboxamide]		> 312
NC(=O)c1[nH]cnc1-c1cccc(-c2ccccc2)c1 [4-(3-Phenylphenyl)-1H-imidazole-5-carboxamide]		> 312
NC(=O)c1scnc1-c1cccc(-c2ccccc2)c1 [4-(3-phenylphenyl)-1,3-thiazole-5-carboxamide]		> 312
